# Experimental data taken from patent US20060188485A1, “Autologous self-tolerance inducing cells of monocytic origin and their use in pharmaceutical preparations” (priority 2003, published 2006).
# System: PHA-stimulated lymphocytes
# Assay: Mixed lymphocyte culture with PHA-stimulated lymphocytes, 3[H]-thymidine incorporation
# Assay type: cell-based, human
# Settings: 2 μmol 1-MT
# Method: In order to clarify, whether the inhibitor of the enzyme indolamine-2,3-dioxygenase (IDO) 1-methyltryptophane (1-MT) influences the suppressor function of the TAIC generated in the “Mo” and “Mo+Ly” set ups (see Example 4), a variety of mixed lymphocyte cultures (MLC) with PHA (phytohaemagglutinine) stimulated T-cells in the presence and in the absence of 1-MT were established.
# In these mixed lymphocyte cultures 50.000 lymphocytes with 2 μg PHA were transferred into the wells of a 96-well-plate, followed by a proliferation period over 144 hours (indicated as “PhaLy”). Lymphocytes only cultivated in medium without addition of PHA were run as a further control (indicated as “Ly”). […]
# After 144 hours cultivation, all controls or co-cultures were further cultivated for 24 hours in the presence of ^3[H]-thymidine (“pulsed”) and thereafter the amount of radioactively labeled thymidine incorporated was determined as counts per minute (cpm), see FIG. 4. In this arrangement, the amount of the radio activity determined is a measure for the amount of labeled thymidine incorporated into the DNA, and therefore a measure for the proliferation rate of the lymphocytes. […]
compound,measurement,setting,value
"Cn1cc(C[C@H](N)C(=O)O)c2ccccc21 [1-MT, 1-methyltryptophane]",influence of 1-MT on the suppressor function of the TAIC,,increases the suppressor function of the TAIC synergistically
same,influence of 1-MT on the suppressor function of the TAIC,listed as 1-methyltryptophane,no influence
